Measurements from ChEMBL document CHEMBL1201862, “PubChem BioAssay data set” (2004).
Active and inactive are the calls of the source.

Experiments:
[1] = test system: INS1; assay: beta cell apoptosis inhibitors, cytokine rescue, dose response, luminescence, retest (AID 449756); format: functional, cell-based; details: Rattus norvegicus;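 also: cell death triggered by IL-1 beta plus TNF-alpha plus IFN-gamma mixture; protective hits raise ATP signal compared with cytokine alone wells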
[2] = target: T1, Voltage-gated N-type calcium channel alpha-1B subunit/Amyloid beta A4 precursor protein-binding family A member 1 (Homo sapiens, UniProt Q00975+Q02410); format: protein assay
[3] = control 3'UTR Renilla luciferase suppression, dose response, counter-screen for Shn3 inhibitor project, cell-based, Clone20-Shn3RL, cherry-picked (AID 624133); format: functional
[4] = target: Large T antigen (Simian virus 40, UniProt P03070); format: functional, Betapolyomavirus macacae;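 also: Confirmatory-stage PubChem screen for compounds that inhibit SV40 T antigen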
[5] = HeLa cell cytotoxicity, dose response, cytotoxicity control for MgcRacGAP inhibitor project (AID 624300); format: functional
[6] = HEp-2 cell cytotoxicity, dose response, cytotoxicity control for RSV inhibitor project, HTS (AID 2410); format: functional; details: human respiratory syncytial virus
[7] = target: DNA damage-inducible transcript 3 protein (Mus musculus, UniProt P35639); format: functional, Cricetulus griseus
[8] = target: T2, Rac GTPase-activating protein 1 (Homo sapiens, UniProt Q9H0H5); assay: MgcRacGAP GTPase-activating activity inhibitors, confirmation, biochemical, ADP Hunter fluorescence, primary and confirmatory (AID 624330); format: functional
T2 sequence (Q9H0H5 whole entry): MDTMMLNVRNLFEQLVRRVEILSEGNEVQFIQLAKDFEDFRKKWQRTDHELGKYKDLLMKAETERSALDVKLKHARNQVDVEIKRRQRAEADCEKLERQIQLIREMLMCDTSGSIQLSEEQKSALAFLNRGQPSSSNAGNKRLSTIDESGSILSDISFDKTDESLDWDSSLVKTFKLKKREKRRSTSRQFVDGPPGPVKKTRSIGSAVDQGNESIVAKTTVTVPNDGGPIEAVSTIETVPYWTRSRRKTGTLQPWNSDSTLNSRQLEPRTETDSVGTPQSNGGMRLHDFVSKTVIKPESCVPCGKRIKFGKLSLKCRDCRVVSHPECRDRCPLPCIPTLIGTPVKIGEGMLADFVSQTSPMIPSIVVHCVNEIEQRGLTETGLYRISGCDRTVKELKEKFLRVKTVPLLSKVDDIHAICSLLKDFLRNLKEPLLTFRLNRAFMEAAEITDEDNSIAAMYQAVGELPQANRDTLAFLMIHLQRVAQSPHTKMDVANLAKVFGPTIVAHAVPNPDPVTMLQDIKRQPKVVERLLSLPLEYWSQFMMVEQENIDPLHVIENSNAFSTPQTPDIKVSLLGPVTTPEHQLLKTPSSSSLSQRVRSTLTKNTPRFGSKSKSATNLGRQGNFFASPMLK

[9] = target: T1, Voltage-gated N-type calcium channel alpha-1B subunit/Amyloid beta A4 precursor protein-binding family A member 1; format: protein assay; remark: listed apart in the source
[10] = Shn3 3'UTR reporter inhibitors, dose response, cell-based, Clone20 osteoblasts, firefly luciferase, cherry-picked (AID 624132); format: functional;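 also: firefly luciferase luminescence from reporter carrying the Shn3 3'UTR in osteoblasts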
[11] = target: Genome polyprotein (dengue virus type 2, UniProt P29990); assay: Dengue-2 NS5 methyltransferase inhibitors, primary screen, biochemical, confirmation dose response (AID 588689); format: functional
[12] = target: Neurotensin receptor type 1 (Homo sapiens, UniProt P30989); format: functional;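 also: Image-based confirmatory dose-response assay measuring agonist activity at NTR1; NTR1-expressing U2OS osteosarcoma cells imaged for beta-arrestin GFP spot formation; agonist potency where compounds increase beta-arrestin recruitment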
[13] = target: T3, Tyrosine-protein phosphatase non-receptor type 22 (Homo sapiens, UniProt Q9Y2R2); format: functional
[14] = target: T3, Tyrosine-protein phosphatase non-receptor type 22; format: functional; remark: listed apart in the source
[15] = target: Tyrosine-protein phosphatase non-receptor type 7 (Homo sapiens, UniProt P35236); format: functional
[16] = test system: T-cell; assay: inhibitors of CD8+ T cell–vesicle binding, dose response, mouse 2C CD8+ T cells, flow cytometry (AID 485284); format: functional
[17] = target: Integrin alpha-L (Mus musculus, UniProt P24063); assay: modulators of CD8 T cell-vesicle binding, dose response, powder samples, mouse 2C CD8+ cells (AID 504565); format: functional
[18] = target: Troponin, cardiac muscle (Homo sapiens, UniProt P19429+P45379+P63316); assay: Fluorescence-based biochemical high throughput dose response assay for activators of the calcium sensitivity of cardiac Regulated Thin Filaments (RTF). [Related pubchem assays (depositor defined):AID493008, AID493018, AID504382, AID504383]; format: protein-complex assay
[19] = microbe, parasite or virus in culture; format: functional; details: Mycobacterium tuberculosis
[20] = target: T4, Replicative DNA helicase DnaB (Mycobacterium tuberculosis, UniProt P9WMR3); assay: DnaB intein splicing inhibitors, dose response, biochemical, cell-free fluorescence (AID 449749); format: functional
T4 sequence (P9WMR3 whole entry): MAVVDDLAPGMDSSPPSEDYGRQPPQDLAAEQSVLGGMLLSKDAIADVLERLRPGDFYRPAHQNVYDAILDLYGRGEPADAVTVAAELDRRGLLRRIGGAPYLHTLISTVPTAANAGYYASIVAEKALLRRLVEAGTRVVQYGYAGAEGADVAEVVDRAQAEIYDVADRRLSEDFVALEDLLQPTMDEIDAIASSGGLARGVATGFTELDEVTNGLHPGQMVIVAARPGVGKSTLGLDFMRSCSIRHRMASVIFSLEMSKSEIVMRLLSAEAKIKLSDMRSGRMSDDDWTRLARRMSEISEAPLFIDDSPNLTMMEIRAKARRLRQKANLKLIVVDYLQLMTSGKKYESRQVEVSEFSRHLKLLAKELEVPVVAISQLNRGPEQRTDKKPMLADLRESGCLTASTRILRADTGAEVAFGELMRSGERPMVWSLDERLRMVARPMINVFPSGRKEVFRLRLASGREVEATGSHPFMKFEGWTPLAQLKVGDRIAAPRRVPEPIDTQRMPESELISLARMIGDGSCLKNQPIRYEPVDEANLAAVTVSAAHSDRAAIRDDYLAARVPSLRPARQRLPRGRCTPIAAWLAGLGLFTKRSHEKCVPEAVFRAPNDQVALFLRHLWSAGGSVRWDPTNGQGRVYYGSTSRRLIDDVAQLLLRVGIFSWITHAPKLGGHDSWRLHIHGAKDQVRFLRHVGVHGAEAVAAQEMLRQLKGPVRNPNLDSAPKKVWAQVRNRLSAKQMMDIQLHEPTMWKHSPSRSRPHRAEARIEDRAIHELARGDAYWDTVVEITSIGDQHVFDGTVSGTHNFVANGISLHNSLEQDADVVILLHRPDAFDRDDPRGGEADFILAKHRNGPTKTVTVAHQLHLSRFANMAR

[21] = growth suppression of PTEN-null colon cells, dose response, cell-based, HCT116 PTEN knockout (AID 1047); format: functional;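 also: HCT116 colon tumor cells with PTEN knocked out; cells exposed to compound for 60 hours before readout; potency for loss of cell viability measured by luminescence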
[22] = Intein inhibitors as potential Tuberculosis drugs, a cytotoxicity screen. [Related pubchem assays (depositor defined):AID2221, AID2223, AID434968, AID435010, AID449749, AID449750, AID489010]; format: functional
[23] = growth suppression of beta-catenin-knockout colon cells, dose response, cell-based, HCT116, human colon tumor (AID 1045); format: functional;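 also: HCT116 colon tumor cells with beta catenin knocked out; cells exposed to compound for 60 hours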
[24] = target: T5, Protein RecA (Mycobacterium tuberculosis, UniProt P9WHJ3); assay: Fluorescence Cell-Free Homogeneous Dose Retest to Identify Inhibitors of RecA-Intein Splicing Activity. [Related pubchem assays (depositor defined):AID2097, AID2223, AID489010, AID492950]; format: functional
T5 sequence (P9WHJ3 whole entry): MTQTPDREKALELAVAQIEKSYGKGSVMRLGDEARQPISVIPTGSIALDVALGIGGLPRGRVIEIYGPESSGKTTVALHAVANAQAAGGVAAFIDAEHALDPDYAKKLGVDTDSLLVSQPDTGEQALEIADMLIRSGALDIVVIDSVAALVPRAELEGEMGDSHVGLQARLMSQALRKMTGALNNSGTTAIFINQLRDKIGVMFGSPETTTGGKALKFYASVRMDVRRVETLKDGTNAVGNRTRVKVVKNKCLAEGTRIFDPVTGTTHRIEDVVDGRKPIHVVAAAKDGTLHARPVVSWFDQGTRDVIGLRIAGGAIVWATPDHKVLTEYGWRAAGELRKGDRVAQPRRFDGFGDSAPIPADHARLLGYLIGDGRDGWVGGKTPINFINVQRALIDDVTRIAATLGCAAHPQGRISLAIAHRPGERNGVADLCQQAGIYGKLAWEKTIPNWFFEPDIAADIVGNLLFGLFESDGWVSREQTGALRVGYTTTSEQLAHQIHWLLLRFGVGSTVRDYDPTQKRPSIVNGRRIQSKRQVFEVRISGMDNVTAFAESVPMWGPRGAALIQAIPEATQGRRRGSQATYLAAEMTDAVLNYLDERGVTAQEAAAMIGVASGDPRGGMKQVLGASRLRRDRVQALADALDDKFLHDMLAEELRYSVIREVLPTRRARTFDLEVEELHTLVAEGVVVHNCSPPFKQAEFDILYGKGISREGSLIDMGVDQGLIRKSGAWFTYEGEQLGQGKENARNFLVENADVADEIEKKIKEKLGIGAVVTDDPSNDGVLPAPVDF

[25] = target: T6, Heat shock factor protein 1 (Mus musculus, UniProt P38532); assay: HSF1 potentiators in luciferase reporter cells, confirmation, cell-based, NIH3T3, luminescence, dose retest (AID 435004); format: functional;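 also: stress induced by proteasome inhibitor MG132 added 30 min after compound; luciferase reporter driven by HSF1 response element in NIH3T3 cells; actives raise luminescence as potentiators of the MG132 stress response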
T6 sequence (P38532 whole entry): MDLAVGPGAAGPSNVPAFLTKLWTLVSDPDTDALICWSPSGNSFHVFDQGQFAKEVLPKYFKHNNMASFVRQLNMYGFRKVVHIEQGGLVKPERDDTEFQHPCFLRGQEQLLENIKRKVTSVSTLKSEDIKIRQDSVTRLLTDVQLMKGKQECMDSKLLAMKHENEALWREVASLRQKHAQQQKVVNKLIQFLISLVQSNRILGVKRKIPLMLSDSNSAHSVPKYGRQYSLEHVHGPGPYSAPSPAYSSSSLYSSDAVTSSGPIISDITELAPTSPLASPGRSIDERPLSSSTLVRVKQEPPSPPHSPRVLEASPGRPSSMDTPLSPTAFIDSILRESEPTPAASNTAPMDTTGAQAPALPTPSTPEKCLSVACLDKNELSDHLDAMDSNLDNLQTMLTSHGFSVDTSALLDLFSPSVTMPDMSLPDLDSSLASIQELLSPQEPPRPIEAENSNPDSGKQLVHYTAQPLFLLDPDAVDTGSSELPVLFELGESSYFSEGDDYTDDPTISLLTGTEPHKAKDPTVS

[26] = Vero E6 cell cytotoxicity, dose response, cytotoxicity control for non-replicating M. tuberculosis project, secondary assay (AID 492998); format: functional, VeroE6; details: Vero C1008
[27] = target: T7, Kappa-type opioid receptor (Homo sapiens, UniProt P41145); assay: SAR analysis of small molecule antagonists of the kappa opioid receptor via a luminescent beta-arrestin assay - Set 5. [Related pubchem assays (depositor defined):AID1778, AID1785]; format: functional
[28] = target: T7, Kappa-type opioid receptor; assay: SAR analysis of small molecule antagonists of the kappa opioid receptor via a luminescent beta-arrestin assay - Set 4. [Related pubchem assays (depositor defined):AID1777, AID1778, AID1785, AID1786, AID1966, AID2133, AID2136, AID2285]; format: functional
[29] = target: Paired box protein Pax-8 (Homo sapiens, UniProt Q06710); assay: inhibitors of PAX8-driven TPO luciferase reporter, dose response, RMG-I cells, cherry-pick (AID 687027); format: functional, cell-based;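 also: luciferase reporter driven by Pax8 target thyroperoxidase promoter measured by SteadyGlo luminescence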
[30] = cytotoxicity in HEK-293T cells, dose response, cytotoxicity control for TCR NF-kB inhibitor project, luminescence, T-cell screen hits (AID 489026); format: functional, cell-based;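 also: cells exposed to compound about 14 hours before the viability readout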

For Cc1ccc(-c2ccc(/C=C3\C(=O)ON=C3c3ccccc3)o2)c([N+](=O)[O-])c1, the AC50 [1] was 7.23 µM (active), the IC50 [2] was > 50 µM (inactive) and the AC50 [3] was 15 µM (active). The IC50 [4] was 29.5 µM (active), the CC50 [5] was 50 µM (active) and the CC50 [6] was 9.29 µM (active). For the same compound, the “Absolute IC50 (CHOP)” value [7] was 10 µM, the IC50 [8] was 67.2 µM (active) and the IC50 [9] was 10.5 µM (active). The AC50 [10] was 3.3 µM (active), the IC50 [11] was 11.1 µM (active) and the EC50 [12] was 7.89 µM (active).
For O=C(NCc1ccccc1)c1cncc(Br)c1, the IC50 [13] was > 79.4 µM (inactive), the IC50 [14] was > 79.4 µM (inactive) and the IC50 [15] was > 79.4 µM (inactive).
For CCOC(=O)c1ccc(S(=O)(=O)N2CCN(C3CCCC3)CC2)cc1, the EC50 [16] was 22.2 µM (active) and the EC50 [17] was 11 µM (active).
In the case of CC(Oc1ccc(F)cc1)C(=O)Nc1sc2c(c1C(=O)NCc1cccnc1)CCCC2 (stereo unspecified), the EC50 [18] was > 71.5 µM (inactive) and the CC50 [19] was > 40 µM (active).
With Cc1cc(C)cc(Cn2ncc(Cl)c(Cl)c2=O)c1 the AC50 [20] was 2.12 µM (active), the EC50 [21] was 8.8 µM (active) and the CC50 [22] was 22.5 µM (active). For the same compound, the EC50 [23] was 6.91 µM (active), the EC50 [24] was 0.985 µM (active) and the EC50 [25] was 21.7 µM (active).
In the case of O=C(CCS(=O)(=O)Cc1ccccc1)Nc1ncc([N+](=O)[O-])s1, the CC50 [26] was > 20 µM (active).
With Cc1ccc(S(=O)(=O)NCc2ccc(C(=O)NCCN(Cc3ccccc3)CC(C)C)cc2)cc1 the IC50 [27] was 4.33 µM (active) and the IC50 [28] was > 20 µM (inactive).
With COc1ccc(C[C@H](N)C(=O)N[C@H]2[C@@H](O)[C@H](n3cnc4c(N(C)C)ncnc43)O[C@@H]2CO)cc1 the AC50 [29] was 0.546 µM (active), the CC50 [19] was 4.73 µM (active) and the IC50 [30] was > 80 µM (inactive).
